Positions of bridges follow the written chain, without caps; N, C: chain ends. Non-standard residues stand in square brackets, D forms with d. Residues, ends and D or L forms follow the SMILES beside them. *: point of attachment. X1 = CN(C)c1ccc2c(c1)Oc1cc(N(C)C)ccc1C21OC(=O)c2ccc(C(=O)*)cc21; C18 diacid = O=C(O)CCCCCCCCCCCCCCCCC(=O)*; PEG3 = NCCOCCOCCOCCC(=O)O; Dap = NC[C@H](N)C(=O)O
Experiments:
[1] = molecular target: T1, AM1R (Homo sapiens, UniProt O60895+Q16602); assay: Activity determination in vitro: cAMP/CRE-luciferase reporter assay in HEK293 cells transiently co-transfected with CLR and RAMP2; type: cell-based; details: for Emax: HEK293, normalized to [G14]ADM(14-52); for EC50: HEK293 with CLR/RAMP2, CRE-luciferase, 3 h stimulation
T1 construct: EYFP; ECFP; expressed in transfected cells; host or cells: HEK-293 (transient co-transfection)
Procedure, shortened: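 HEK-293 cells transiently co-transfected with CLR-EYFP, RAMP2-ECFP and a CRE-luc2P reporter, stimulated 3 h at 37° C with eight ligand concentrations in triplicate. Luminescence read by ONE-Glo, corrected to 5 μM forskolin, normalized to [G14]ADM(14-52) standard, and fitted by non-linear regression.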

[2] = Stability determination of TAMRA-labelled adrenomedullin analogues in human blood plasma; type: in vitro ADME; details: 37° C., 10^-5 M, slow-decay phase half-life, read-out: t1/2 (slow) (converted)
Method: The stability of the peptides was investigated using fluorescently labeled analogues, which were prepared as described above.
The TAMRA-labeled analogues were dissolved in 1.5 m1 of human blood plasma to a concentration of 10^−5 M and incubated at 37° C. under constant shaking. Samples of 150 μl were taken at different time points and precipitated with 300 μl Ethanol/ACN (1:1) for at least 1 h at −20° C. After centrifugation for 30 s at 12000 rpm, the supernatant was collected and incubated at −20° C. for at least 3 h. Subsequently, it was transferred into Costar® Spin-X® Centrifuge Tube Filters (0.22 μm) and centrifuged for 1 h at 12000 rpm. The samples were analyzed by RP-HPLC using a VariTide RPC column (Agilent Technologies, 250 mm×4.6 mm, […], 200 Å) with linear gradients of 0.1% TFA in water and 0.08% TFA in ACN; fluorescence measurement (λex=525 nm; λem=572 nm) was used for the detection of the analogues and their N-terminal fragments. The percentage of intact peptide was determined by peak integration. The values of peaks containing additional cleavage fragments were corrected by comparing intensities of cleavage fragments and intact peptide using MALDI-MS analysis (UltraflexIII, Bruker). The stability of the peptides was calculated with GraphPad Prism 5 (GraphPad Software) using a two phase exponential decay function for the determination of slow-decay phase half-lives (ln(2)/Kslow; Kslow: rate constant of slow part of exponential decay).

T1 sequence (Q16602 23-461): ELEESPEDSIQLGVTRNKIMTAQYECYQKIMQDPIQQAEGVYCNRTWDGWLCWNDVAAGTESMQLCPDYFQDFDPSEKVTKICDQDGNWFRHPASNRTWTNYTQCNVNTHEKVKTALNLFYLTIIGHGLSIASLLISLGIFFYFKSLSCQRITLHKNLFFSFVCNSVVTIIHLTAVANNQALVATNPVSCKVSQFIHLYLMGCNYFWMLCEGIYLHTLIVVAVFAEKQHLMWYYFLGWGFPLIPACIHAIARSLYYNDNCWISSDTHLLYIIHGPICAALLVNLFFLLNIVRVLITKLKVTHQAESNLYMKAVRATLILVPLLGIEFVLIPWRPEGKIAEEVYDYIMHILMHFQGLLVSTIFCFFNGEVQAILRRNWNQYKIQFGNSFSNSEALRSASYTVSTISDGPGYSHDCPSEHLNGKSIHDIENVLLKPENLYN
T1 sequence (O60895 43-175): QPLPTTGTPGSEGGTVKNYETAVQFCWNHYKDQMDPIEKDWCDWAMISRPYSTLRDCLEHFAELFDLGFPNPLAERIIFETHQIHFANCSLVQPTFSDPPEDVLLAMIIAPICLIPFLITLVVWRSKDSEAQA

Row | Emax [1] [%] | EC50 [1] [nM] | half-life [2] [h] | Compound
1 | 89 ± 2 | 3.4 |  | CC[C@H](C)[C@H](NC(=O)[C@H](CCC(N)=O)NC(=O)[C@H](Cc1c[nH]cn1)NC(=O)[C@H](C)NC(=O)[C@H](CC(C)C)NC(=O)[C@H](CCCCN)NC(=O)[C@H](CCC(N)=O)NC(=O)[C@@H](NC(=O)[C@@H](NC(=O)[C@@H]1CCC(=O)NC[C@H](NC(=O)CNC(=O)[C@@H](N)CCCCNC(=O)CCCCCCCCCCCCCCCCC(=O)O)C(=O)N[C@@H](CCCNC(=N)N)C(=O)N[C@@H](Cc2ccccc2)C(=O)NCC(=O)N[C@@H]([C@@H](C)O)C(=O)N1)[C@@H](C)O)C(C)C)C(=O)N[C@@H](Cc1ccc(O)cc1)C(=O)N[C@@H](CCC(N)=O)C(=O)N[C@@H](Cc1ccccc1)C(=O)N[C@H](C(=O)N[C@@H](CC(=O)O)C(=O)N[C@@H](CCCCN)C(=O)N[C@@H](CC(=O)O)C(=O)N[C@@H](CCCCN)C(=O)N[C@@H](CC(=O)O)C(=O)N[C@@H](CC(N)=O)C(=O)N[C@H](C(=O)N[C@@H](C)C(=O)N1CCC[C@H]1C(=O)N[C@@H](CCCNC(=N)N)C(=O)N[C@@H](CO)C(=O)N[C@@H](CCCCN)C(=O)N[C@H](C(=O)N[C@@H](CO)C(=O)N1CCC[C@H]1C(=O)N[C@@H](CCC(N)=O)C(=O)NCC(=O)N[C@@H](Cc1ccc(O)cc1)C(N)=O)[C@@H](C)CC)C(C)C)[C@@H](C)O [Example 15, ((3S,9S,12S,15S,21S)-15-(2-((S)-2-amino-6-(17-carboxyoctadecanamido)hexanamido)acetamido)-9-benzyl-12-(3-guanidinopropyl)-3-((R)-1-hydroxyethyl)-2,5,8,11,14,18-hexaoxo-1,4,7,10,13,17-hexaazacyclohenicosane-21-carbonyl)-L-threonyl-ADM(23-52)] (H-K(C18 diacid)G[Dap]RFGTETVQKLAHQIYQFTDKDKDNVAPRSKISPQGY-NH2; lactam 3-8)
2 | 100 ± 5 | 1.4 |  | CC[C@H](C)[C@H](NC(=O)[C@H](CCC(N)=O)NC(=O)[C@H](Cc1c[nH]cn1)NC(=O)[C@H](C)NC(=O)[C@H](CC(C)C)NC(=O)[C@H](CCCCN)NC(=O)[C@H](CCC(N)=O)NC(=O)[C@@H](NC(=O)[C@@H](NC(=O)[C@@H]1CCC(=O)NC[C@H](NC(=O)CNC(=O)[C@@H](N)CCCCNC(=O)CCCCCCCCCCCCCCCCC(=O)O)C(=O)N[C@@H](CCCNC(=N)N)C(=O)N[C@@H](Cc2ccccc2)C(=O)NCC(=O)N[C@@H]([C@@H](C)O)C(=O)N1)[C@@H](C)O)C(C)C)C(=O)N[C@@H](Cc1ccc(O)cc1)C(=O)N[C@@H](CCC(N)=O)C(=O)N[C@@H](Cc1ccccc1)C(=O)N[C@H](C(=O)N[C@@H](CC(=O)O)C(=O)N[C@@H](CCCCN)C(=O)N[C@@H](CC(=O)O)C(=O)N[C@@H](CCCCN)C(=O)N[C@@H](CC(=O)O)C(=O)N[C@@H](CC(N)=O)C(=O)N[C@H](C(=O)N[C@@H](C)C(=O)N1CCC[C@H]1C(=O)N[C@H]1CCCCNC(=O)C[C@@H](C(=O)N2CCC[C@H]2C(=O)N[C@@H](CCC(N)=O)C(=O)NCC(=O)N[C@@H](Cc2ccc(O)cc2)C(N)=O)NC(=O)[C@H]([C@@H](C)CC)NC(=O)[C@H](CCCCN)NC(=O)[C@H](CO)NC1=O)C(C)C)[C@@H](C)O [Example 16] (H-K(C18 diacid)G[Dap]RFGTETVQKLAHQIYQFTDKDKDNVAPKSKIDPQGY-NH2; lactam 3-8, 31-35)
3 | 77 ± 3 | 5 |  | CC[C@H](C)[C@H](NC(=O)[C@H](CCC(N)=O)NC(=O)[C@H](Cc1c[nH]cn1)NC(=O)[C@H](C)NC(=O)[C@H](CC(C)C)NC(=O)[C@H](CCCCN)NC(=O)[C@H](CCC(N)=O)NC(=O)[C@@H](NC(=O)[C@@H](NC(=O)[C@@H]1CCC(=O)NC[C@H](NC(=O)CNC(=O)[C@@H](N)CCCCNC(=O)CCCCCCCCCCCCCCCCC(=O)O)C(=O)N[C@@H](CCCNC(=N)N)C(=O)N[C@@H](Cc2ccccc2)C(=O)NCC(=O)N[C@@H]([C@@H](C)O)C(=O)N1)[C@@H](C)O)C(C)C)C(=O)N[C@@H](Cc1ccc(O)cc1)C(=O)N[C@@H](CCC(N)=O)C(=O)N[C@@H](Cc1ccccc1)C(=O)N[C@H](C(=O)NCCOCCOCCOCCC(=O)N[C@@H](CC(=O)O)C(=O)N[C@@H](CC(N)=O)C(=O)N[C@H](C(=O)N[C@@H](C)C(=O)N1CCC[C@H]1C(=O)N[C@H]1CCCCNC(=O)C[C@@H](C(=O)N2CCC[C@H]2C(=O)N[C@@H](CCC(N)=O)C(=O)NCC(=O)N[C@@H](Cc2ccc(O)cc2)C(N)=O)NC(=O)[C@H]([C@@H](C)CC)NC(=O)[C@H](CCCCN)NC(=O)[C@H](CO)NC1=O)C(C)C)[C@@H](C)O [Example 17] (H-K(C18 diacid)G[Dap]RFGTETVQKLAHQIYQFT[PEG3]DNVAPKSKIDPQGY-NH2; lactam 3-8, 28-32)
4 | 99 ± 1 | 3.5 |  | CC[C@H](C)[C@H](NC(=O)[C@H](CCC(N)=O)NC(=O)[C@H](Cc1c[nH]cn1)NC(=O)[C@H](C)NC(=O)[C@H](CC(C)C)NC(=O)[C@H](CCCCN)NC(=O)[C@H](CCC(N)=O)NC(=O)[C@@H](NC(=O)[C@@H](NC(=O)[C@@H]1CSSC[C@H](NC(=O)CNC(=O)CN)C(=O)N[C@@H](CCCNC(=N)N)C(=O)N[C@@H](Cc2ccccc2)C(=O)NCC(=O)N[C@@H]([C@@H](C)O)C(=O)N1)[C@@H](C)O)C(C)C)C(=O)N[C@@H](Cc1ccc(O)cc1)C(=O)N[C@@H](CCC(N)=O)C(=O)N[C@@H](Cc1ccccc1)C(=O)N[C@H](C(=O)N[C@@H](CC(=O)O)C(=O)N[C@@H](CCCCN)C(=O)N[C@@H](CC(=O)O)C(=O)N[C@@H](CCCCN)C(=O)N[C@@H](CC(=O)O)C(=O)N[C@@H](CC(N)=O)C(=O)N[C@H](C(=O)N[C@@H](C)C(=O)N1CCC[C@H]1C(=O)N[C@@H](CCCNC(=N)N)C(=O)N[C@@H](CO)C(=O)N[C@@H](CCCCN)C(=O)N[C@H](C(=O)N[C@@H](CO)C(=O)N1CCC[C@H]1C(=O)N[C@@H](CCC(N)=O)C(=O)NCC(=O)N[C@@H](Cc1ccc(O)cc1)C(N)=O)[C@@H](C)CC)C(C)C)[C@@H](C)O [Reference, reference compound]
5 |  |  | 149 | CC[C@H](C)[C@H](NC(=O)[C@H](CCC(N)=O)NC(=O)[C@H](Cc1c[nH]cn1)NC(=O)[C@H](C)NC(=O)[C@H](CC(C)C)NC(=O)[C@H](CCCCN)NC(=O)[C@H](CCC(N)=O)NC(=O)[C@@H](NC(=O)[C@@H](NC(=O)[C@@H]1CSSC[C@H](NC(=O)CNC(=O)[C@H](CCCCNC(=O)CCCCCCCCCCCCCCCCC(=O)O)NC(=O)c2ccc3c(c2)C2(OC3=O)c3ccc(N(C)C)cc3Oc3cc(N(C)C)ccc32)C(=O)N[C@@H](CCCNC(=N)N)C(=O)N[C@@H](Cc2ccccc2)C(=O)NCC(=O)N[C@@H]([C@@H](C)O)C(=O)N1)[C@@H](C)O)C(C)C)C(=O)N[C@@H](Cc1ccc(O)cc1)C(=O)N[C@@H](CCC(N)=O)C(=O)N[C@@H](Cc1ccccc1)C(=O)N[C@H](C(=O)N[C@@H](CC(=O)O)C(=O)N[C@@H](CCCCN)C(=O)N[C@@H](CC(=O)O)C(=O)N[C@@H](CCCCN)C(=O)N[C@@H](CC(=O)O)C(=O)N[C@@H](CC(N)=O)C(=O)N[C@H](C(=O)N[C@@H](C)C(=O)N1CCC[C@H]1C(=O)N[C@@H](CCCNC(=N)N)C(=O)N[C@@H](CO)C(=O)N[C@@H](CCCCN)C(=O)N[C@H](C(=O)N[C@@H](CO)C(=O)N1CCC[C@H]1C(=O)N[C@@H](CCC(N)=O)C(=O)NCC(=O)N[C@@H](Cc1ccc(O)cc1)C(N)=O)[C@@H](C)CC)C(C)C)[C@@H](C)O [TAM-5]
6 |  |  | > 144 | CC[C@H](C)[C@H](NC(=O)[C@H](CCC(N)=O)NC(=O)[C@H](Cc1c[nH]cn1)NC(=O)[C@H](C)NC(=O)[C@H](CC(C)C)NC(=O)[C@H](CCCCN)NC(=O)[C@H](CCC(N)=O)NC(=O)[C@@H](NC(=O)[C@@H](NC(=O)[C@@H]1CSSC[C@H](NC(=O)CNC(=O)[C@H](CCCCNC(=O)CCCCCCCCCCCCCCCCC(=O)O)NC(=O)c2ccc3c(c2)C2(OC3=O)c3ccc(N(C)C)cc3Oc3cc(N(C)C)ccc32)C(=O)N[C@@H](CCCNC(=N)N)C(=O)N[C@@H](Cc2ccccc2)C(=O)NCC(=O)N[C@@H]([C@@H](C)O)C(=O)N1)[C@@H](C)O)C(C)C)C(=O)N[C@@H](Cc1ccc(O)cc1)C(=O)N[C@@H](CCC(N)=O)C(=O)N[C@@H](Cc1ccccc1)C(=O)N[C@H](C(=O)N[C@@H](CC(=O)O)C(=O)N[C@@H](CCCCN)C(=O)N[C@@H](CC(=O)O)C(=O)N[C@@H](CCCCN)C(=O)N[C@@H](CC(=O)O)C(=O)N[C@@H](CC(N)=O)C(=O)N[C@H](C(=O)N[C@@H](C)C(=O)N1CCC[C@H]1C(=O)N[C@H]1CCCCNC(=O)C[C@@H](C(=O)N2CCC[C@H]2C(=O)N[C@@H](CCC(N)=O)C(=O)NCC(=O)N[C@@H](Cc2ccc(O)cc2)C(N)=O)NC(=O)[C@H]([C@@H](C)CC)NC(=O)[C@H](CCCCN)NC(=O)[C@H](CO)NC1=O)C(C)C)[C@@H](C)O [TAM-13] (X1-K(C18 diacid)GCRFGTCTVQKLAHQIYQFTDKDKDNVAPKSKIDPQGY-NH2; disulfide 3-8; lactam 31-35)

From patent US20220387608A1, “ADRENOMEDULLIN-ANALOGUES FOR LONG-TERM STABILIZATION AND THEIR USE” (Bayer Aktiengesellschaft, priority 2019, published 2022)
